Results on 2 compounds are retold here after article PMC7151106 (Pharmaceutics, 2020).

SMILES strings stand for the structures. Read-outs that look alike come from different tables or passages of the source.

Data set [1] has as its target T1, SGLT2 (Homo sapiens, UniProt P31639).
T1 construct: host or cells: CHO
T1 sequence (P31639 1-672): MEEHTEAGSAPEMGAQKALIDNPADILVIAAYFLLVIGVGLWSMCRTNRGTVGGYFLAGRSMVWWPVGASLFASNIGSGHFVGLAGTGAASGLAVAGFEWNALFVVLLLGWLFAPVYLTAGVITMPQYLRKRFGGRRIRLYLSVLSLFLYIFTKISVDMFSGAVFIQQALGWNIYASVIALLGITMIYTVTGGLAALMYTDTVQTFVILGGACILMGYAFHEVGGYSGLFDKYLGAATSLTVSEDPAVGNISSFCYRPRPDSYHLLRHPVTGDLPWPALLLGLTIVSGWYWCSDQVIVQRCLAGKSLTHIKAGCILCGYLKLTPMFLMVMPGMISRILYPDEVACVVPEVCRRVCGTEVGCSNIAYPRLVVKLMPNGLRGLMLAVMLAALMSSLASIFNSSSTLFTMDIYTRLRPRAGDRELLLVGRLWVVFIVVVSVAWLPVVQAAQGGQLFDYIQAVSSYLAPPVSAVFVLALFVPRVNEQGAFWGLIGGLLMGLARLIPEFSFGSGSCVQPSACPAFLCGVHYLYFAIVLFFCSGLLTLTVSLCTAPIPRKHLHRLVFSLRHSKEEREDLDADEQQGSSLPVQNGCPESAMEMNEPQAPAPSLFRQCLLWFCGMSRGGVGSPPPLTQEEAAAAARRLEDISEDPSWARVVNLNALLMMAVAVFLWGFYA
Put plainly: Time dependency of SGLT2 inhibition (preincubation) in CHO-SGLT2 cells. The class given is cell-based. The following applies: for IC50: 10 μM [14C]AMG, 2 h, CHO-SGLT2; for Time dependency of SGLT2 inhibition: pretreatment 0, 1, 2 h. The method, then: After 2 h of incubation, the radioactivity of the cell lysate was measured following the same sample preparation method described above.

A short description of data set [2]: Pharmacokinetic study and kidney distribution after single oral administration in ICR mice.
Method: (§5) An aliquot (30 µL) of each plasma sample was stored at −80 °C until the analysis. […] An aliquot (50 µL) of each kidney homogenate sample was stored at −80 °C until the analysis.
(§6) For the analysis of SGLT2 inhibitors, aliquots of plasma (30 µL) and kidney homogenate (50 µL) were added to 100 μL of aqueous solution of D4-DWP16001 (IS, 20 ng/mL), and vigorously mixed with 500 μL methyl tert-butyl ether (MTBE) for 15 min. After centrifugation at 16,000 g for 5 min, samples were kept for 1 h at −80 °C to make an aqueous layer freeze. An organic upper layer was transferred to a clean tube and evaporated to dryness under a gentle stream of nitrogen. Then, the dried extract was reconstituted in 150 µL of mobile phase, and a 3 µL aliquot of the reconstituent was injected into a liquid chromatography–tandem mass spectrometry (LC–MS/MS) system.
(§7) Pharmacokinetic parameters, such as the area under plasma concentration-time curve from zero to infinity (AUC), were calculated from plasma concentration vs time curves using non-compartment analysis with WinNonlin (version 5.1; Pharsights, Cary, NC, USA). The AUC ratios (i.e., ratios of kidney AUC to plasma AUC) were calculated by dividing the AUC of the three SGLT2 inhibitors in the kidney by the plasma AUC values of the three SGLT2 inhibitors.
The next data set relates to T2, OAT3.
T2 construct: host or cells: HEK293
Put plainly: Substrate specificity / uptake in HEK293-OAT3 cells. The following applies: for Substrate for OAT3: HEK293-OAT3 vs mock, ± 20 μM probenecid. The format is in vitro ADME. The procedure: (§1) HEK293-mock cells and HEK293 cells overexpressing OAT1 and OAT3 transporters (HEK293-OAT1 and -OAT3, respectively) were seeded in poly-D-lysine-coated 24-well plates at a density of 4 × 10^5 cells/well and cultured for 24 h in DMEM supplemented with 10% FBS and 5 mM non-essential amino acids at 37 °C in 8% CO2 condition.
(§2) For each experiment, the growth medium was discarded after 24 h, and the attached cells were washed with pre-warmed HBSS and incubated with pre-warmed HBSS for 20 min at 37 °C. To confirm the functionality of OAT1 and OAT3, we measured the uptake of 0.1 µM [^3H]PAH and 0.1 µM [^3H]ES, representative substrates for OAT1 and OAT3, respectively, into in the HEK293-mock cells and HEK293-OAT1 and -OAT3 cells, respectively, for 5 min in the presence and absence of 20 µM probenecid, a typical inhibitor for both OAT1 and OAT3 [8, 9]. The cells were then washed three times with 500 μL of ice-cold HBSS immediately after placing the plates on ice. Subsequently, cells were lysed with 10% sodium dodecyl sulfate and mixed with Optiphase cocktail solution overnight. The radioactivity of the cell lysate was measured using a liquid scintillation counter (Microbeta 2; Perkin Elmer Inc., Boston, MA, USA).
(§3) For the concentration dependency in the uptake of DWP16001, the uptake of DWP16001 in a concentration range of 0.5–50 μM dissolved in HBSS was measured for 5 min at 37 °C in the mock cells and HEK293-OAT1 and -OAT3 cells, respectively. After 5 min, the cells were washed three times with 500 μL of ice-cold HBSS immediately after placing the plates on ice.
(§4) In the concentration-dependent uptake studies, the transporter-mediated uptake of DWP16001 was calculated by the subtraction of the transport rates of DWP16001 into the mock cells from those of the HEK293-OAT1 and -OAT3 cells. Kinetic parameters for the OAT1- and OAT3-mediated transport of DWP16001 were determined using the Michaelis-Menten equation [V = Vmax⋅S/(Km + S)] [10].

Data set [3] has as its target T1, SGLT2. The experiment in a line: Mode of inhibition on SGLT2 (Dixon plots) in CHO-SGLT2 cells. The format is cell-based. The following applies: 1, 2.5, 5, 50 μM [14C]AMG. The procedure: The radioactivity of the cell lysate was measured following the same sample preparation method described above.
The test system of a further data set is T3, OAT1.
T3 construct: host or cells: HEK293
Put plainly: Substrate specificity / uptake in HEK293-OAT1 cells. The class given is in vitro ADME. As to conditions: for Substrate for OAT1: HEK293-OAT1 vs mock, ± 20 μM probenecid. The procedure: as §1, §2, §3, §4

Data set [4] is described as follows: Protein binding in mouse plasma (rapid equilibrium dialysis). The following applies: 1000 ng/mL, 4 h at 37 °C, mean ± SD, triplicate. For orientation: In equilibrium dialysis free small molecules cross a membrane that holds back macromolecules.
Method: (§8) Four hours after incubation at 37 °C on a shaking incubator at 300 rpm, aliquots (50 μL) were collected from both the sample and buffer chambers and treated with equal volumes of fresh PBS and blank plasma or blank kidney homogenate, respectively, to match the sample matrices. The matrix-matched sample (100 μL) was added 100 μL of aqueous solution of D4-DWP16001 (IS, 20 ng/mL), and vigorously mixed with 1000 μL MTBE for 15 min. After centrifugation at 16,000 g for 5 min, samples were kept for 1 h at −80 °C. An organic upper layer was transferred to a clean tube and evaporated to dryness under a gentle stream of nitrogen. Then, the dried extract was reconstituted in 300 µL of mobile phase and a 3 µL aliquot of the reconstituent was injected into the LC-MS/MS system.
Plasma protein binding was calculated using the following Equation (1) [6, 7]. (1) Undiluted free drug fraction (fu)=Drug concentration in buffer chamber/Drug concentration in plasma sample chamber
Data set [5] in a line: logP (partition coefficient of n-octanol/water).
Data set [6] is described as follows: Protein binding in 20% mouse kidney homogenate (rapid equilibrium dialysis). As to conditions: corrected for dilution, 1000 ng/mL, 4 h at 37 °C, mean ± SD, triplicate.
Method: as §8
Kidney protein binding was calculated using the following equations, Equations (2) and (3), and a dilution factor (D as a value of 5) for tissue homogenates was used since we used 20% kidney homogenates [6, 7]. (2) Diluted free drug fraction (fu′)=Drug concentration in buffer chamber/Drug concentration in kidney homogenate chamber, (3) Undiluted free drug fraction (fu)=1/D/(1/fu^′−1)+1/D=fu′×0.2/1−fu′×0.8.
Details of data set [7]: method as in PMID 27430987. The following applies: cited from earlier work.
Data set [8] deals with T1, SGLT2. The following applies: read-out: IC50 values of previous reports; cited from earlier work.
For data set [9] the following is noted: mouse, in vivo, po, 1 mg/kg.
Method: as §5, §6, §7
A further data set in a line: in vivo. As to conditions: ICR, mouse, po, 1 mg/kg.
[10] abbreviates: without preincubation, read-out: IC50 (0 h).
The mark [11] stands for this setting: ICR, mouse, plasma, po, 1 mg/kg.
Setting [12] is: HEK293-OAT3 minus mock, 0.5–50 μM, 5 min.
Where [13] appears, read: HEK293-OAT1 minus mock, 0.5–50 μM, 5 min.

Method for in vivo: as §5, §6, §7

By IC50 is commonly meant the concentration needed to halve the response being measured. As usually defined, the half-life is how long it takes for the measured level to halve. High values mean slow decline, low ones rapid decline. As a reminder, the AUC(0-inf) is total exposure, with the tail of the curve extrapolated. Read a high AUC(0-inf) as more exposure. Usually AUC(0-t) stands for the area under the concentration-time curve up to a stated or last time point. Usually Cmax stands for the highest concentration seen after dosing. By Tmax is commonly meant the time at which the peak concentration occurs. One may read the Km as the concentration of substrate that gives half-maximal velocity. As a reminder, the logP is a log measure of how a compound divides between an organic and an aqueous phase. The compound `OC[C@H]1O[C@@H](c2cc(Cc3ccc(C4CC4)cc3)c(Cl)c3c2CCO3)[C@H](O)[C@@H](O)[C@@H]1O` [DWP16001] returned an IC50 against SGLT2 [1] (IC50 (1 h), preincubation 1 h) of 0.7 nM. For the same compound, at SGLT2 [1] (IC50 (2 h), preincubation 2 h), the IC50 was determined as 0.8 nM. Moreover, the “Time dependency of SGLT2 inhibition” value on SGLT2 [1] was “time-independent”. Besides, at SGLT2 [1] (setting [10]), the IC50 amounted to 0.7 nM. Further, the Kp in data set [2] (ICR, mouse, kidney homogenate and plasma, po, 1 mg/kg) worked out at 85 ± 16.1. Moreover, the half-life in data set [2] (ICR, mouse, kidney, po, 1 mg/kg, t1/2, kidney, single oral 1 mg/kg, ICR mice, mean ± SD, five mice) was 126 ± 80.4 h. In [2] (setting [11]), the AUC(0-inf) came out at 1730 ± 340 ng·h/mL, the AUC(0-t) turned out to be 1690 ± 340 ng·h/mL, the peak level (Cmax) was 371 ± 109 ng/mL and the time of peak concentration (Tmax) turned out to be 0.7 ± 0.3 h. Moreover, the half-life in data set [2] (ICR, mouse, plasma, po, 1 mg/kg, t1/2, plasma, single oral 1 mg/kg, ICR mice, mean ± SD, five mice) is 3.8 ± 1.4 h. The AUC72h in data set [2] (kidney, single oral 1 mg/kg, ICR mice, mean ± SD, five mice) is given as 139.2 ± 5.19 μg∙h/g tissue. In the data set with OAT3 (2 μM, 5 min), the “Increase of uptake in HEK293-OAT3 cells compared with mock cells” value was “two-fold” and the “Substrate for OAT3” value is given as “a substrate”. In the data set with OAT3 (setting [12]), the “OAT3-mediated uptake: CLint” value is 8.6 µL/min and the “OAT3-mediated uptake: Vmax” value is reported as 267.9 pmol/min. Besides, the Km at 5 min in the data set with OAT3 (human, HEK293-OAT3 minus mock, 0.5–50 μM, read-out: OAT3-mediated uptake: Km) came out at 31.1 µM. In addition, at SGLT2 [3], the “Mode of inhibition on SGLT2” value is “reversible and competitive”. In the data set with OAT1 (2 μM, 5 min), the “Increase of uptake in HEK293-OAT1 cells compared with mock cells” value is “two-fold” and the “Substrate for OAT1” value is recorded as “a substrate”. Besides, in the data set on OAT1 (setting [13]), the “OAT1-mediated uptake: CLint” value is 3.1 µL/min and the “OAT1-mediated uptake: Vmax” value amounted to 119.2 pmol/min. In the data set with OAT1 (human, HEK293-OAT1 minus mock, 0.5–50 μM, read-out: OAT1-mediated uptake: Km), the Km at 5 min was 38 µM. Moreover, the “Protein Binding (% Bound) Plasma” value in data set [4] turned out to be 98.50 ± 0.20 % Bound. In data set [5], this compound had a logP of 2.65. For the same compound, in data set [6], the “Protein Binding (% Bound) Kidney” value came out at 97.24 ± 0.08 % Bound.
For `OC[C@H]1O[C@@H](c2ccc(F)c(Cc3cc4ccccc4s3)c2)[C@H](O)[C@@H](O)[C@@H]1O` [Ipragliflozin, ipragliflozin], the IC50 against SGLT2 [1] (IC50 (1 h), preincubation 1 h) is 11 nM. The compound also displayed an IC50 at SGLT2 [1] (IC50 (2 h), preincubation 2 h) of 9.9 nM. Besides, on SGLT2 [1], the “Time dependency of SGLT2 inhibition” value is “time-independent”. Further, the IC50 at SGLT2 [1] (setting [10]) worked out at 10.6 nM. In [7], the “Duration of increased urinary glucose excretion post dose” value was not below 18 h. Besides, the “Substrate for OAT3” value in the data set with OAT3 (2 μM, 5 min) was “not substrates”. Also, on SGLT2 [3], the “Mode of inhibition on SGLT2” value was “reversible and competitive”. Besides, the “Substrate for OAT1” value in the data set on OAT1 (2 μM, 5 min) is “not substrates”. The logP in “physchem” was 2.56. For the same compound, the IC50 at SGLT2 [8] is 6.75 to 8.07 nM. This compound yielded an AUC72h in data set [9] of 73.65 ± 7.05 μg∙h/g tissue. In the data set “in vivo”, this compound gave an AUC(0-inf) of 1970 ± 410 ng·h/mL, an AUC(0-t) of 1960 ± 410 ng·h/mL, a Cmax of 410 ± 59.1 ng/mL and a Kp of 38.4 ± 5.3. Also, the Tmax in “in vivo” was 0.6 ± 0.2 h.
